“And” between values parts separate entries of the source, which are not always exact repeats. Equal values may be shown once. Inconclusive results and toxic doses are left out. The calls were made as follows: active = survival T/C of 150% or more; inactive = T/C below 125% in these data.
System: P388 leukemia ip, CD2F1 mice, survival T/C
Test: NCI In Vivo Anticancer Drug Screen. Data for tumor model P388 Leukemia (intraperitoneal) in CD2F1 (CDF1) mice
Conditions: endpoint: median survival time, higher = longer survival
Outline: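 Mice carrying the transplanted tumor received test compound or vehicle. Survival was recorded in each group, and the value is the treated-group measurement divided by that of the vehicle-treated control group.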

[1] = dose: 50.0 mg/kg/injection, schedule: Q01DX005 (ip), vehicle: saline with Tween-80
[2] = dose: 100.0 mg/kg/injection, schedule: Q01DX005 (ip), vehicle: saline with Tween-80
[3] = dose: 50.0 mg/kg/injection, schedule: Q01DX005 (ip), vehicle: Klucel (hydroxypropylcellulose) (HPC)
[4] = dose: 100.0 mg/kg/injection, schedule: Q04DX003 (ip), vehicle: saline with Tween-80

Measured: T/C

O=C1C=CC(=Nc2cc3c(cc2Br)-c2ccccc2C3=O)O1
inactive: dose: 3.12 mg/kg/injection, schedule: Q01DX005 (ip), vehicle: saline with Tween-80 100 % of control and 98 % of control | dose: 6.25 mg/kg/injection, schedule: Q01DX005 (ip), vehicle: saline with Tween-80 100 % of control and 104 % of control | dose: 12.5 mg/kg/injection, schedule: Q01DX005 (ip), vehicle: saline with Tween-80 104 % of control and 105 % of control | dose: 25.0 mg/kg/injection, schedule: Q01DX005 (ip), vehicle: saline with Tween-80 104 % of control and 106 % of control and 117 % of control | [1] 103 % of control and 105 % of control | [2] 104 % of control

C=CCC1(C)C=C(C)C(=O)C(C)=C1
inactive: dose: 60.0 mg/kg/injection, schedule: Q01DX005 (ip), vehicle: saline with Tween-80 105 % of control | dose: 120.0 mg/kg/injection, schedule: Q01DX005 (ip), vehicle: saline with Tween-80 102 % of control | dose: 240.0 mg/kg/injection, schedule: Q01DX005 (ip), vehicle: saline with Tween-80 104 % of control

Cc1ccc(/C=N\NC(=O)NN)cc1
inactive: dose: 25.0 mg/kg/injection, schedule: Q01DX005 (ip), vehicle: Klucel (hydroxypropylcellulose) (HPC) 97 % of control | [3] 102 % of control

NC1=C(O)C(=O)C(c2ccccn2)O1 (centres undefined)
inactive: dose: 25.0 mg/kg/injection, schedule: Q01DX001 (ip), vehicle: other 105 % of control | dose: 50.0 mg/kg/injection, schedule: Q01DX001 (ip), vehicle: other 119 % of control | dose: 100.0 mg/kg/injection, schedule: Q01DX001 (ip), vehicle: other 116 % of control

O=S(=O)(O)c1cnc2nccn2c1
inactive: dose: 50.0 mg/kg/injection, schedule: Q04DX003 (ip), vehicle: suspension in saline 99 % of control | dose: 100.0 mg/kg/injection, schedule: Q04DX003 (ip), vehicle: suspension in saline 110 % of control | dose: 200.0 mg/kg/injection, schedule: Q04DX003 (ip), vehicle: suspension in saline 105 % of control

CC(=O)OC1C2C=CC1C=C2 (centres undefined)
inactive: dose: 50.0 mg/kg/injection, schedule: Q01DX009 (ip), vehicle: saline with Tween-80 104 % of control | dose: 100.0 mg/kg/injection, schedule: Q01DX009 (ip), vehicle: saline with Tween-80 93 % of control | dose: 200.0 mg/kg/injection, schedule: Q01DX009 (ip), vehicle: saline with Tween-80 100 % of control

COc1ccc(C2OC3=C(Nc4ccc(Cl)cc4N3)C2=O)cc1 (centres undefined)
inactive: dose: 30.0 mg/kg/injection, schedule: Q01DX005 (ip), vehicle: Klucel (hydroxypropylcellulose) (HPC) 98 % of control | dose: 60.0 mg/kg/injection, schedule: Q01DX005 (ip), vehicle: Klucel (hydroxypropylcellulose) (HPC) 94 % of control | dose: 120.0 mg/kg/injection, schedule: Q01DX005 (ip), vehicle: Klucel (hydroxypropylcellulose) (HPC) 93 % of control and 97 % of control | dose: 240.0 mg/kg/injection, schedule: Q01DX005 (ip), vehicle: Klucel (hydroxypropylcellulose) (HPC) 98 % of control

O=C(COC1CCCCC1)OC1CCCCC1
inactive: dose: 50.0 mg/kg/injection, schedule: Q04DX003 (ip), vehicle: saline with Tween-80 100 % of control | [4] 100 % of control

CCOC(=O)C(=CNCc1ccccc1)C(=O)OCC
inactive: dose: 15.0 mg/kg/injection, schedule: Q01DX009 (ip), vehicle: saline with Tween-80 106 % of control | dose: 30.0 mg/kg/injection, schedule: Q01DX009 (ip), vehicle: saline with Tween-80 104 % of control | dose: 60.0 mg/kg/injection, schedule: Q01DX009 (ip), vehicle: saline with Tween-80 95 % of control

Cc1ccc(NC(=O)Oc2ccc(Cl)cc2Cl)c([N+](=O)[O-])c1
inactive: dose: 50.0 mg/kg/injection, schedule: Q01DX009 (ip), vehicle: gum acacia 109 % of control | dose: 100.0 mg/kg/injection, schedule: Q01DX009 (ip), vehicle: gum acacia 109 % of control | dose: 200.0 mg/kg/injection, schedule: Q01DX009 (ip), vehicle: gum acacia 109 % of control

CC1(Oc2ccccc2)OC(=O)c2ccccc2O1 (centres undefined)
inactive: [1] 96 % of control | [2] 104 % of control | dose: 200.0 mg/kg/injection, schedule: Q01DX005 (ip), vehicle: saline with Tween-80 95 % of control

CCCN(CCC)CCCOC(=O)c1ccc2oc3ccc(C(=O)OCCCN(CCC)CCC)cc3c2c1
inactive: dose: 50.0 mg/kg/injection, schedule: Q01DX009 (ip), vehicle: saline 103 % of control | dose: 100.0 mg/kg/injection, schedule: Q01DX009 (ip), vehicle: saline 106 % of control

O=C(Nc1cccnc1)c1ccc(CSc2ccc(Cl)cc2)o1
inactive: [3] 104 % of control | dose: 100.0 mg/kg/injection, schedule: Q01DX005 (ip), vehicle: Klucel (hydroxypropylcellulose) (HPC) 102 % of control | dose: 200.0 mg/kg/injection, schedule: Q01DX005 (ip), vehicle: Klucel (hydroxypropylcellulose) (HPC) 111 % of control

COc1ccc(OC)c(/C=C(/C)[N+](=O)[O-])c1
inactive: dose: 44.0 mg/kg/injection, schedule: Q04DX003 (ip), vehicle: saline with Tween-80 119 % of control | dose: 66.0 mg/kg/injection, schedule: Q04DX003 (ip), vehicle: saline with Tween-80 117 % of control | [4] 123 % of control | dose: 150.0 mg/kg/injection, schedule: Q04DX003 (ip), vehicle: saline with Tween-80 124 % of control
